According to patent US7427625B2, “Substituted thiatriazaacenaphthylene-6-carbonitrile kinase inhibitors” (Janssen Pharmaceutica, N.V., priority 2006, dated 2008):

Legend:
Assay type in all cases: biochemical
HER-2 = target: T1, HER-2 (Homo sapiens, UniProt P04626); test: HER-2 Kinase Assay
T1 construct: the nucleotides encoding amino acids 679 to 1255 of HER-2; purchased Proqinase (Freiburg, Germany)
In short: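 GST-HIS6-thrombin fusion of HER-2 residues 679–1255, assayed with biotinylated polyGluTyr, 1 μM ATP plus γ-33P-ATP, Mg2+, Mn2+ and vanadate in Hepes pH 7.5 for 1 h at 30 °C. Incorporation read by streptavidin Flashplate scintillation counting; IC50 values, or % inhibition at 1 μM.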

VEGF-R2 = target: T2, VEGF-R2 (Rattus norvegicus, UniProt O08775); test: VEGF-R2 Screening Assay
T2 construct: polyhistidine (N)
T2 sequence (O08775 786-1343): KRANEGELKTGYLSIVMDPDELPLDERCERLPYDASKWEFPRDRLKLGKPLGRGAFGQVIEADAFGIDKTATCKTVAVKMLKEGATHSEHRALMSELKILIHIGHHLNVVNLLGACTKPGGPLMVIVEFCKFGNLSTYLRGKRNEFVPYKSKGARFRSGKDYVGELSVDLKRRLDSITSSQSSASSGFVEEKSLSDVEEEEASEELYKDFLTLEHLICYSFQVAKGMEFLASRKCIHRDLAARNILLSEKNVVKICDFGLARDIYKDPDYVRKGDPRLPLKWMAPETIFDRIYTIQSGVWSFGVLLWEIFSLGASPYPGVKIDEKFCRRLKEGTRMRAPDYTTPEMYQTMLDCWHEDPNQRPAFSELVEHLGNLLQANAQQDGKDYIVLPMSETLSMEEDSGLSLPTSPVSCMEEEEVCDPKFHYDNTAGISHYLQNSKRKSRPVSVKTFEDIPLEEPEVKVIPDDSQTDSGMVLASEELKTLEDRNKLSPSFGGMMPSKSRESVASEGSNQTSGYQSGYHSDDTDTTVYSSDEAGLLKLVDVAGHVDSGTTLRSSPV

c-Src kinase = target: T3, c-Src kinase (Homo sapiens, UniProt P12931); test: c-Src Kinase Assay; settings: for inhibition at 2 µM: test concentration of 2 μM, read-out: c-Src percent inhibition
T3 construct: purchased Upstate Biotechnology, Lake Placid, N.Y
T3 sequence (P12931 whole entry): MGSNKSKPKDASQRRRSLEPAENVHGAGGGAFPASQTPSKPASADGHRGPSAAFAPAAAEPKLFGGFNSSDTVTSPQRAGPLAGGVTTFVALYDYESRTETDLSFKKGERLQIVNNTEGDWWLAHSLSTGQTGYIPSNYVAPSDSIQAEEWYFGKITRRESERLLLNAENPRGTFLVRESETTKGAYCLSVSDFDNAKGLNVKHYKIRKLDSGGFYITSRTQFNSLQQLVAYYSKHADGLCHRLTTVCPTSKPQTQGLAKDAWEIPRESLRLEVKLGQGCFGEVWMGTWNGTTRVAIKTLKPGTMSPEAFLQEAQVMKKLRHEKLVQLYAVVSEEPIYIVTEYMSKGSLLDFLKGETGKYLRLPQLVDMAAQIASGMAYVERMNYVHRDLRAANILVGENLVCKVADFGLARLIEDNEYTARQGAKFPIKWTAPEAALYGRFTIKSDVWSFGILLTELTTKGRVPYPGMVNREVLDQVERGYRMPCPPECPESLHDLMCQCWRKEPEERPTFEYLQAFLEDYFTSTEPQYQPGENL
Experimental: A mixture of a 10× kinase buffer (80 mM MOPS at pH 7.0, 2 mM EDTA and 100 mM Magnesium Chloride), ATP (5 μM final from a 10 mM stock), a Cdc2 peptide KVEKIGEGTYVVYK (100 μM final from a 2.5 mM stock), γ-^33P ATP (10 μCi/μL stock) and water (20 μL/well) was added to each well of a Streptavidin Flashplate.
Test compound in 100% DMSO (0.5 μL) was added to the appropriate wells. Diluted c-Src kinase (human) (Upstate Biotechnology, Lake Placid, N.Y.) (diluted in a buffer consisting of 20 mM MOPS at pH 7.0, 1 mM EDTA, β-mercaptoethanol (0.1%), Brij-35 (0.01%), glycerol (5%) and 1 mg/mL bovine serum albumin) (2.5 μL) was added to the wells to initiate the reactions. The reaction plates were incubated at 30° C. for 40 min. The reaction was terminated by the addition of a 3% phosphoric acid solution (5 μL). The reaction product (10 μL) was spotted onto a P30 filtermat and washed for 5 minutes in phosphoric acid (75 mM). The wash sequence was repeated two more times, followed with one final wash in methanol. The plates were then dried, sealed and read on the TopCount scintillation counter after adding 30 μL scintillation fluid.
Percent inhibition was derived according to the procedure described in Example 2. For those compounds without an IC50, the percent inhibition results are shown at a test concentration of 2 μM.

T1 sequence (P04626 679-1255): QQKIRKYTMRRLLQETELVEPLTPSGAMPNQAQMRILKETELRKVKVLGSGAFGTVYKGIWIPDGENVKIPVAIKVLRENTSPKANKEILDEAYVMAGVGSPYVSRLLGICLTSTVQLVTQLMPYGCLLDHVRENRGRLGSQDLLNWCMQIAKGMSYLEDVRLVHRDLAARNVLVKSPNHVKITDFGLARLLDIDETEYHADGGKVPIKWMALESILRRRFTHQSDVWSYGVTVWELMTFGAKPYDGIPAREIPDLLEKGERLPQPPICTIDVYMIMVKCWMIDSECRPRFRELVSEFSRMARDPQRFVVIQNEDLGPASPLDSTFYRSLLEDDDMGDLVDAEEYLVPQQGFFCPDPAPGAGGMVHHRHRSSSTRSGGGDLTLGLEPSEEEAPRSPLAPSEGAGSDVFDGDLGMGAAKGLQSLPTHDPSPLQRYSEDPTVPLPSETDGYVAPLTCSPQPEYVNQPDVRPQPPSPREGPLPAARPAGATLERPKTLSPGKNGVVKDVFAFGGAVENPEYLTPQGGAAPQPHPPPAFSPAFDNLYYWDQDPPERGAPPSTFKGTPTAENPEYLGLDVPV

Row | IC50 (HER-2) [µM] | IC50 (VEGF-R2) [µM] | IC50 (c-Src kinase) [nM] | inhibition at 2 µM (c-Src kinase) [%] | inhibition at 1 µM (HER-2; test concentration of 1 μM, read-out: HER-2 percent inhibition) [%] | Structure (SMILES)
1 | 0.836 | > 100 | – | – | – | N#Cc1cnc2sc(C(=O)Nc3ccc(CN4CCCCC4)cc3)c3c2c1N(c1ccc(Oc2ccccc2)cc1)C(=O)N3 [Cpd 49, 6-cyano-4-oxo-5-(4-phenoxy-phenyl)-4,5-dihydro-3H-1-thia-3,5,8-triaza-acenaphthylene-2-carboxylic acid (4-piperidin-1-ylmethyl-phenyl)-amide]
2 | ~100 | > 100 | 368 | – | – | COc1cc(N2C(=O)Nc3c(C(=O)Nc4ccc(CCN5CCOCC5)cc4)sc4ncc(C#N)c2c34)c(Cl)cc1Cl [Cpd 6, 6-cyano-5-(2,4-dichloro-5-methoxy-phenyl)-4-oxo-4,5-dihydro-3H-1-thia-3,5,8-triaza-acenaphthylene-2-carboxylic acid [4-(2-morpholin-4-yl-ethyl)-phenyl]-amide]
3 | > 1 | > 10 | – | 78 | – | N#Cc1cnc2sc(C(=O)Nc3ccc(CCN4CCOCC4)cc3)c3c2c1N(c1c(Cl)ccc2c1OCO2)C(=O)N3 [Cpd 13, 5-(5-chloro-benzo[1,3]dioxol-4-yl)-6-cyano-4-oxo-4,5-dihydro-3H-1-thia-3,5,8-triaza-acenaphthylene-2-carboxylic acid [4-(2-morpholin-4-yl-ethyl)-phenyl]-amide]
4 | 5.55 | > 100 | – | 91 | – | CN1CCN(CCc2ccc(NC(=O)c3sc4ncc(C#N)c5c4c3NC(=O)N5c3c(Cl)ccc4c3OCO4)cc2)CC1 [Cpd 12, 5-(5-chloro-benzo[1,3]dioxol-4-yl)-6-cyano-4-oxo-4,5-dihydro-3H-1-thia-3,5,8-triaza-acenaphthylene-2-carboxylic acid {4-[2-(4-methyl-piperazin-1-yl)-ethyl]-phenyl}-amide]
5 | 5.35 | > 10 | 57.4 | – | – | N#Cc1cnc2sc(C(=O)Nc3ccc(CN4CCOCC4)cc3)c3c2c1N(c1c(Cl)ccc2c1OCO2)C(=O)N3 [Cpd 4, 5-(5-chloro-benzo[1,3]dioxol-4-yl)-6-cyano-4-oxo-4,5-dihydro-3H-1-thia-3,5,8-triaza-acenaphthylene-2-carboxylic acid (4-morpholin-4-ylmethyl-phenyl)-amide]
6 | > 10 | > 100 | 355 | – | – | COc1cc(N2C(=O)Nc3c(C(=O)Nc4ccc(CN5CCOCC5)cc4)sc4ncc(C#N)c2c34)c(Cl)cc1Cl [Cpd 5, 6-cyano-5-(2,4-dichloro-5-methoxy-phenyl)-4-oxo-4,5-dihydro-3H-1-thia-3,5,8-triaza-acenaphthylene-2-carboxylic acid (4-morpholin-4-ylmethyl-phenyl)-amide]
7 | > 100 | > 100 | – | -0.6 | – | CCOC(=O)c1sc2nc(-c3cc(F)ccc3Cl)c(C#N)c3c2c1NC(=O)N3c1ccncc1 [Cpd 15, 7-(2-chloro-5-fluoro-phenyl)-6-cyano-4-oxo-5-pyridin-4-yl-4,5-dihydro-3H-1-thia-3,5,8-triaza-acenaphthylene-2-carboxylic acid ethyl ester]
8 | 13.5 | > 100 | – | – | – | CN(C)C1CCN(C(=O)c2sc3ncc(C#N)c4c3c2NC(=O)N4c2c(Cl)ccc3c2OCO3)CC1 [Cpd 41, 5-(5-chloro-benzo[1,3]dioxol-4-yl)-2-(4-dimethylamino-piperidine-1-carbonyl)-4-oxo-4,5-dihydro-3H-1-thia-3,5,8-triaza-acenaphthylene-6-carbonitrile]
9 | ~100 | 14.1 | – | -21 | – | N#Cc1c(N2CCOCC2)nc2sc(C(=O)Nc3ccc(CN4CCOCC4)cc3)c3c2c1N(c1c(Cl)ccc2c1OCO2)C(=O)N3 [Cpd 8, 5-(5-chloro-benzo[1,3]dioxol-4-yl)-6-cyano-7-morpholin-4-yl-4-oxo-4,5-dihydro-3H-1-thia-3,5,8-triaza-acenaphthylene-2-carboxylic acid (4-morpholin-4-ylmethyl-phenyl)-amide]
10 | – | > 100 | – | 90 | 49 | CC1CCN(Cc2ccc(NC(=O)c3sc4ncc(C#N)c5c4c3NC(=O)N5c3c(Cl)ccc4c3OCO4)cc2)CC1 [Cpd 19, 5-(5-chloro-benzo[1,3]dioxol-4-yl)-6-cyano-4-oxo-4,5-dihydro-3H-1-thia-3,5,8-triaza-acenaphthylene-2-carboxylic acid [4-(4-methyl-piperidin-1-ylmethyl)-phenyl]-amide]
11 | 0.134 | > 100 | – | – | – | CC(C)(C)OC(=O)NC1CCN(Cc2ccc(NC(=O)c3sc4ncc(C#N)c5c4c3NC(=O)N5c3c(Cl)ccc4c3OCO4)cc2)CC1 [Cpd 46, [1-(4-{[5-(5-chloro-benzo[1,3]dioxol-4-yl)-6-cyano-4-oxo-4,5-dihydro-3H-1-thia-3,5,8-triaza-acenaphthylene-2-carbonyl]-amino}-benzyl)-piperidin-4-yl]-carbamic acid tert-butyl ester]
12 | > 100 | > 100 | – | 11 | – | CCOC(=O)c1sc2nc(O)c(C#N)c3c2c1NC(=O)N3c1ccncc1 [Cpd 14, 6-cyano-7-hydroxy-4-oxo-5-pyridin-4-yl-4,5-dihydro-3H-1-thia-3,5,8-triaza-acenaphthylene-2-carboxylic acid ethyl ester]
13 | 7.16 | ~100 | 87 | – | – | CN1CCC(NC(=O)c2sc3ncc(C#N)c4c3c2NC(=O)N4c2c(Cl)ccc3c2OCO3)CC1 [Cpd 10, 5-(5-chloro-benzo[1,3]dioxol-4-yl)-6-cyano-4-oxo-4,5-dihydro-3H-1-thia-3,5,8-triaza-acenaphthylene-2-carboxylic acid (1-methyl-piperidin-4-yl)-amide]
14 | 2.91 | > 100 | 71.2 | – | – | N#Cc1cnc2sc(C(=O)Nc3ccc(CCN4CCCCC4)cc3)c3c2c1N(c1c(Cl)ccc2c1OCO2)C(=O)N3 [Cpd 11, 5-(5-chloro-benzo[1,3]dioxol-4-yl)-6-cyano-4-oxo-4,5-dihydro-3H-1-thia-3,5,8-triaza-acenaphthylene-2-carboxylic acid [4-(2-piperidin-1-yl-ethyl)-phenyl]-amide]
15 | 1.23 | > 10 | – | – | – | COC1CCN(Cc2ccc(NC(=O)c3sc4ncc(C#N)c5c4c3NC(=O)N5c3c(Cl)ccc4c3OCO4)cc2)CC1 [Cpd 18, 5-(5-chloro-benzo[1,3]dioxol-4-yl)-6-cyano-4-oxo-4,5-dihydro-3H-1-thia-3,5,8-triaza-acenaphthylene-2-carboxylic acid [4-(4-methoxy-piperidin-1-ylmethyl)-phenyl]-amide]
16 | > 10 | > 100 | – | – | – | N#Cc1cnc2sc(C(=O)Nc3ccc(CCN4CCCCC4)cc3)c3c2c1N(c1ccc(Oc2ccccc2)cc1)C(=O)N3 [Cpd 48, 6-cyano-4-oxo-5-(4-phenoxy-phenyl)-4,5-dihydro-3H-1-thia-3,5,8-triaza-acenaphthylene-2-carboxylic acid [4-(2-piperidin-1-yl-ethyl)-phenyl]-amide]
17 | > 1 | > 100 | – | – | – | CN(C)C1CCN(Cc2ccc(NC(=O)c3sc4ncc(C#N)c5c4c3NC(=O)N5c3c(Cl)ccc4c3OCO4)cc2)CC1 [Cpd 42, 5-(5-chloro-benzo[1,3]dioxol-4-yl)-6-cyano-4-oxo-4,5-dihydro-3H-1-thia-3,5,8-triaza-acenaphthylene-2-carboxylic acid [4-(4-dimethylamino-piperidin-1-ylmethyl)-phenyl]-amide]
18 | > 10 | > 10 | – | 11 | – | Cc1nc2sc(C(=O)Nc3ccc(CN4CCOCC4)cc3)c3c2c(c1C#N)N(c1c(Cl)ccc2c1OCO2)C(=O)N3 [Cpd 9, 5-(5-chloro-benzo[1,3]dioxol-4-yl)-6-cyano-7-methyl-4-oxo-4,5-dihydro-3H-1-thia-3,5,8-triaza-acenaphthylene-2-carboxylic acid (4-morpholin-4-ylmethyl-phenyl)-amide]
19 | 0.0836 | > 100 | – | – | – | COc1cc(NC(=O)c2sc3ncc(C#N)c4c3c2NC(=O)N4c2ccc(Oc3ccccc3)cc2)ccc1CN1CCOCC1 [Cpd 45, 6-cyano-4-oxo-5-(4-phenoxy-phenyl)-4,5-dihydro-3H-1-thia-3,5,8-triaza-acenaphthylene-2-carboxylic acid (3-methoxy-4-morpholin-4-ylmethyl-phenyl)-amide]
20 | > 100 | > 100 | – | -1 | – | CCOC(=O)c1sc2nc(N3CCOCC3)c(C#N)c3c2c1NC(=O)N3c1c(Cl)ccc2c1OCO2 [Cpd 7, 5-(5-chloro-benzo[1,3]dioxol-4-yl)-6-cyano-7-morpholin-4-yl-4-oxo-4,5-dihydro-3H-1-thia-3,5,8-triaza-acenaphthylene-2-carboxylic acid ethyl ester]
